Patent publication US7390826B2, “Inhibitors of animal cell motility and growth” (The Board of Trustees of The University of Illinois, priority 2002, dated 2008)
“Also recorded” adds a separate entry of the source. Where two headings read alike, the source gives them in different places.

What was measured:
Keller sandwich explants = assay: convergent extension in Keller sandwich explants; set-up: species or system frog
Text: It is hypothesized, but not relied upon herein, that the effects of compound 1 are mediated by an activity or activities after stage 9 during gastrulation and neurulation, and its effects on blastopore closure and anteroposterior elongation are consistent with inhibition of convergent extension. […] Therefore, compound 1 affects cell motility, cell polarity, and/or cell adhesion in the embryo.

MDCK cells [1] = assay: MDCK cell proliferation; type: cell-based, canine; settings: 50 μM
Protocol: In FIG. 2A, cells were plated at low cell density (1×10^4 cells/mL) and allowed to attach and begin to grow for 48 hours prior to the start of experiment. The treatments were 0.1% DMSO (control, n=9 cultures), 50 μM compound 1 (n=8), or 50 μM compound 11 (n=7). Reported values are mean with SEM of the percent increase in cell number from 0 to 48 hours after addition of compound 1.
The values were mean with SEM of the percent increase in cell number another 48 hours after replacement of medium containing 50 μM compound 1 (n=8 cultures) or 0.1% DMSO (n=9) with fresh medium containing 0.1% DMSO.
MDCK cell proliferation: MDCK cells were plated on multiwell tissue culture plates at low density ([…]). Cells were allowed to attach and begin to grow for 48 hours before the start of the experiment. Fresh medium with or without compound was then added, and cells were incubated for 48 hours. At both 0 and 48 hours, some of the parallel wells for control and compound treatments were washed twice with PBS and treated with trypsin/EDTA solution to detach the cells. An equal volume of medium was added, cells were collected and counted using a hemacytometer. For reversibility, some of the parallel cultures for both control and compound treatments were grown another 48 hours after washing twice with PBS and replacing medium with fresh compound-free medium. At both the time of washing out and 48 hours later, some of the parallel wells for control and compound treatments were washed twice with PBS, detached from the plates with trypsin/EDTA solution, and the number of cells was counted.

[2] = system: Escherichia coli (DH5a strain); assay: bacterial growth (absorbance at 600 nm); type: cell-based; settings: 50 μM
Protocol: (§1) Reported values are the mean ±SEM for triplicate samples.
(§2) Bacterial growth: Staphylococcus aureus or Escherichia coli (DH5a strain) were grown in Luria-Bertani (LB) medium for 12 hours at 37° C. in a shaking incubator. Dilutions into fresh LB medium with 0.1% DMSO (solvent carrier control) or 50 μM compound 1 were made to an absorbance at 600 nm (A600) of about 0.1. Bacteria were incubated at 37° C. with shaking during the experiment, and A600 measurements were made at set time intervals during log growth phase until the plateau phase was reached.

Staphylococcus aureus = assay: bacterial growth (absorbance at 600 nm); type: cell-based; settings: 50 μM; for absorbance at 600 nm: mean ± SEM
Protocol: as §1, §2

MDCK cells [3] = assay: Trypan blue exclusion cell viability assay; type: cell-based, canine
Text: Cells also remain normal in morphology with both cell-substratum and cell-cell adhesion intact after treatment with compound 1.

Xenopus laevis embryos = assay: frog embryo morphogenesis assay (scoring of developmental defects); type: in vivo; settings: for EC50: Xenopus laevis, 72 h
Text: In order to identify compounds that specifically perturb morphogenesis in the frog embryo, a suitable method for scoring embryos by characteristic defects was developed. A useful starting point was the “dorso-anterior index” (DAI). The DAI originally was constructed by adding new morphological characteristics to the older “index of axis deficiency” (S. R. Scharf et al., Dev. Biol., 99, 75-87 (1983)). The DAI is a scale of dorsoanterior development wherein embryos are assigned a score based on degree of dorsoanterior phenotype (K. R. Kao et al., Dev. Biol., 127, 64-77 (1988)). The scale encompasses a score of 0 (for the most axis-deficient or ventralized embryos) to 10 (for embryos with the most enhanced dorsoanterior structures), with a score of 5 signifying a normal embryo.
Because the DAI focuses only on dorsoanterior phenotypes, other categories were added to describe possible defects more comprehensively, with an emphasis on characteristics that are easily and unambiguously recognized in intact embryos, and that are diagnostic of possible effects on morphogenesis during gastrulation and neurulation. The most useful and readily scored categories that covered the most frequent deficiencies were: reduced anterior structures and microcephaly, delayed appearance or absence of eye pigmentation, overall shortness along the anteroposterior axis, bent axis, bent tail only, reduced posterior structures/tail, malformed or reduced fins, delayed or failed neural tube closure (neural fold fusion), abnormal pigmentation pattern, ventral swelling (edema), and delayed or abnormal visceral organogenesis and yolk resorption. In addition, blastopore closure, an earlier process that marks the completion of gastrulation, was observed.
In these tests, test compounds were added individually to wells each containing 4-8 embryos in 12-well plates. Embryos at stage 8.5-9, according to the classification of Nieuwkoop and Faber (P. I. Nieuwkoop et al., Normal Table of Xenopus laevis (Daudin). Amsterdam: North-Holland Publ.) (1967)), were used because these are late blastula stages before gastrulation begins at stage 10, which allowed focusing primarily on compounds that affect morphogenetic events in gastrulation and neurulation. These embryos, therefore, have undergone a midblastula transition at stage 8 (cleavage division 12) when zygotic transcription begins (J. Newport et al., Cell, 30, 675-686 (1982); J. Newport et al., Cell, 30, 687-696 (1982)) but have not yet started the morphogenetic movements of gastrulation.
Standard procedures were used in the care of animals, gamete preparation, fertilization of oocytes, and culture of embryos (B. K. Kay et al., Methods in Cell Biology, Volumn 36 (San Diego: Academic Press, Inc.) (1991)). In order to stimulate ovulation, female frogs were injected with 500 units of human chorionic gonadotropin (HCG). Eggs were squeezed from female frogs 12 hours later. Testes were removed from euthanized male frogs that had been primed with 50 units of HCG 4-6 hours earlier. The testes were stored at 4° C. in single strength Marc's Modified Ringer's solution with 50 μg/ml gentamycin and used for no more than 10 days. Small pieces of testes were macerated and spread over eggs for in vitro fertilization in Petri dishes. Fertilized eggs were placed in one-tenth strength Modified Barth's Saline (MBS) with 50 μg/ml gentamycin at constant temperature (19° C.) in a temperature-controlled incubator and development allowed to proceed under these conditions. Embryos were dejellied by briefly swirling them in a solution of 2% (w/v) L-cysteine, pH 8.0. The embryos then were rinsed extensively with one-tenth strength MBS to wash out the cysteine. Experiments were started within an hour of dejellying the embryos.
Experiments were carried out in 12-well flat-bottom polystyrene plates with 4-8 embryos per well in 1.0 ml of one-tenth strength MBS with 50 μg/ml gentamycin at 19° C. […]

Question: For `C/C=C/C(=O)N1C(=O)OC[C@@H]1Cc1ccccc1` [Compound 1, (4S)-3-((E)-2-butenoyl)-4-benzyl-2-oxazolidinone], which convergent extension (Keller sandwich explants) is on record?
Answer: inhibits convergent extension

Question: And the “inhibition of MDCK cell proliferation (percent increase in cell number)” value (MDCK cells [1]; 0 to 48 hours)?
Answer: reversibly inhibited MDCK cell proliferation

Question: What about the “reversibility of inhibition of cell proliferation” value (MDCK cells [1]; another 48 hours after washing out) of the same compound?
Answer: reversible

Question: And the “inhibition of growth of Escherichia coli (Gram-negative)” value [2]?
Answer: does not inhibit the growth

Question: What about the “inhibition of growth of Staphylococcus aureus (Gram-positive)” value (Staphylococcus aureus) of the same compound?
Answer: does not inhibit the growth

Question: What about the “absorbance at 600 nm” value (Staphylococcus aureus; 0 hours) of the same compound?
Answer: 0.117 ± 0.037

Question: What about the “absorbance at 600 nm” value (Staphylococcus aureus; 1 hours) of the same compound?
Answer: 0.160 ± 0.056

Question: What about the “absorbance at 600 nm” value (Staphylococcus aureus; 2 hours) of the same compound?
Answer: 0.332 ± 0.130

Question: And the “absorbance at 600 nm” value (Staphylococcus aureus; 3 hours)?
Answer: 0.615 ± 0.162

Question: What about the “absorbance at 600 nm” value (Staphylococcus aureus; 4 hours) of the same compound?
Answer: 0.937 ± 0.181

Question: What about the “absorbance at 600 nm” value (Staphylococcus aureus; 27 hours) of the same compound?
Answer: 3.265 ± 0.196

Question: And the “absorbance at 600 nm” value (Staphylococcus aureus; 31 hours)?
Answer: 3.608 ± 0.271

Question: What about the “toxicity at concentrations that inhibit cell migration” value (MDCK cells [3]) of the same compound?
Answer: no general toxicity; also recorded: no evidence of toxicity or metabolic distress

Question: And the “reduction in the length of the tail” value (Xenopus laevis embryos; 15 μM added at 2-cell stage)?
Answer: evident

Question: What about the “effects on anteroposterior elongation, head and eye development, visceral organogenesis and yolk resorption” value (Xenopus laevis embryos; 15 μM added at 2-cell stage, 48 hours) of the same compound?
Answer: significant effects

Question: And the “anteroposterior length, head development, eye pigmentation, visceral organogenesis and yolk resorption versus control embryos” value (Xenopus laevis embryos; 15 μM added at stage 8.5-9, 48, 72 or 96 hours after treatment, Student's t-test)?
Answer: significantly different

Question: And the “exposure before washing out with no significant effect on later development” value (Xenopus laevis embryos; 15 μM, stage 8.5-9 embryos)?
Answer: up to 9 hours

Question: And the “exposure resulting in significant defects in postneurula analyses” value (Xenopus laevis embryos; 15 μM, stage 8.5-9 embryos)?
Answer: ≥ 12 h

Question: And the EC50 (Xenopus laevis embryos; read-out: EC50 with respect to the defective phenotype at 72 hr following treatment)?
Answer: 13.9 µM

Question: What about the EC50 (Xenopus laevis embryos; read-out: log EC50+standard error of log EC50 (converted)) of the same compound?
Answer: 13.9 µM

Question: And the “concentration lethal to the embryos” value (Xenopus laevis embryos; frog embryos)?
Answer: 2 to 3 times the EC50

Question: And the “blastopore closure in gastrulating embryos” value (Xenopus laevis embryos; treatment at stage 8.5-9 or 2-cell stage)?
Answer: delayed
